Patent US8895548B2, “Pharmaceutical composition for treating alzheimer's disease” (Shionogi & Co., Ltd., priority 2007, dated 2014)

Tested on: brain β amyloid 1-40
Assay: Lowering effect on brain β amyloid in mice
Format: in vivo
Settings: sc; male Crlj:CD-1(ICR) mouse, 100 mg/kg subcutaneously, brain isolated 3 hours after administration, ELISA; read-out: reduction of brain β amyloid 1-40 compared to vehicle control group
Procedure: (§1) A test compound was suspended in 0.5% methylcellulose, the final concentration was adjusted to 2 mg/mL, and this was orally administered to male Crg:SD rat (7 to 9 week old) at 10 mg/kg. In a vehicle control group, only 0.5% methylcellulose was administered, and an administration test was performed at 3 to 8 animals per group. A brain was isolated 3 hours after administration, a cerebral hemisphere was isolated, a weight thereof was measured, the hemisphere was rapidly frozen in liquid nitrogen, and stored at −80° C. until the day for extraction. The frozen cerebral hemisphere was transferred to a homogenizer manufactured by Teflon (registered trade mark) under ice cooling, a 5-fold volume of a weight of an extraction buffer (containing 1% CHAPS ({3-[(3-chloroamidopropyl)dimethylammonio]-1-propanesulfonate}), 20 mM Tris-HCl (pH 8.0), 150 mM NaCl, Complete (Roche) protease inhibitor) was added, up and down movement was repeated, and this was homogenized to solubilize for 2 minutes. The suspension was transferred to a centrifugation tube, allowed to stand on an ice for 3 hours or more and, thereafter centrifuged at 100,000×g and 4° C. for 20 minutes. After centrifugation, the supernatant was transferred to an ELISA plate (product No. 27730, Immuno-Biological Laboratories) for measuring 3 amyloid 1-40. ELISA measurement was performed according to the attached instruction. The lowering effect was calculated as a ratio compared to the brain b amyloid 1-40 level of vehicle control group.
A test compound was suspended in 0.5% methylcellulose, the final concentration was adjusted to 10 mg/mL, and this was subcutaneously administered to back of male Crlj:CD-1(ICR) mouse (7 to 8 week old) at 100 mg/kg. In a vehicle control group, only 0.5% methylcellulose was administered. A test was performed at 4 to 8 animals per group. A brain was isolated 3 hours after administration. The subsequent operations were the same as in the above test in rat.

**Q.** With `CC1(c2cccc(NC(=O)c3cnc(N=[N+]=N)cn3)c2)CCSC(N)=N1` (centres unmarked) [Compound 1266] as the compound, how does the inhibition in vivo at 100 mg/kg read?
**A.** 60 to 90%

**Q.** For `CC1(c2cccc(C(=O)Nc3ccc(Cl)cn3)c2)CCSC(N)=N1` (centres unmarked) [Compound 220], which inhibition in vivo at 100 mg/kg is on record?
**A.** 60 to 90%

**Q.** For `CC1(c2cc(Cl)cc(NC(=O)c3ccc(Cl)cn3)c2)CCSC(N)=N1` (centres unmarked) [Compound 739], which inhibition in vivo at 100 mg/kg is on record?
**A.** 60 to 90%

**Q.** With `Cc1cnc(C(=O)Nc2cccc(C3(C)CCSC(N)=N3)c2)cn1` (centres unmarked) [Compound 309] as the compound, how does the inhibition in vivo at 100 mg/kg read?
**A.** 60 to 90%

**Q.** For `CC1(c2cccc(NC(=O)c3ncc(Br)cn3)c2)CCSC(N)=N1` (centres unmarked) [Compound 900], which inhibition in vivo at 100 mg/kg is on record?
**A.** 60 to 90%

**Q.** Which inhibition in vivo at 100 mg/kg does the source give for `CC1(c2cc(Br)cc(NC(=O)c3ccc(Cl)cn3)c2)CCSC(N)=N1` (centres unmarked) [Compound 165] here?
**A.** 60 to 90%

**Q.** Which inhibition in vivo at 100 mg/kg does the source give for `CC1(c2cc(Br)cc(NC(=O)c3cc4ccccc4s3)c2)CCSC(N)=N1` (centres unmarked) [Compound 1014] here?
**A.** 60 to 90%

**Q.** For `CC1(c2cc(NC(=O)c3ccc(Cl)cn3)cc(C(F)(F)F)c2)C=C(N)SCC1` (centres unmarked) [Compound 964], which inhibition in vivo at 100 mg/kg is on record?
**A.** 60 to 90%

**Q.** With `CC1(c2cc(Br)cc(NC(=O)c3ccc(Br)cc3)c2)CCSC(N)=N1` (centres unmarked) [Compound 1262] as the compound, how does the inhibition in vivo at 100 mg/kg read?
**A.** 60 to 90%

Same assay, conditions: sc; male Crlj:CD-1(ICR) mouse, 100 mg/kg subcutaneously, brain isolated 3 hours after administration; read-out: brain β amyloid 1-40, % of vehicle control group

**Q.** For `CC1(c2cc(NC(=O)c3ccc(C(F)(F)F)cn3)ccc2F)CCSC(N)=N1` (centres unmarked) [Compound 396], which response vs control in vivo at 100 mg/kg is on record?
**A.** 38.4%

**Q.** Which response vs control in vivo at 100 mg/kg does the source give for `CC1(c2cccc(NC(=O)c3ncc(Cl)cc3Cl)c2)CCSC(N)=N1` (centres unmarked) [Compound 127] here?
**A.** 25.2%

**Q.** Which response vs control in vivo at 100 mg/kg does the source give for `CC1(c2cc(NC(=O)c3ccc(Cl)cn3)ccc2Cl)CCSC(N)=N1` (centres unmarked) [Compound 1199] here?
**A.** 14.1%

**Q.** Which response vs control in vivo at 100 mg/kg does the source give for `CC1(c2cc(NC(=O)c3ccc(Cl)cn3)ccc2F)CCSC(N)=N1` (centres unmarked) [Compound 1043] here?
**A.** 15%

**Q.** Which response vs control in vivo at 100 mg/kg does the source give for `CC1(c2cc(NC(=O)c3ccc(F)cn3)ccc2F)CCSC(N)=N1` (centres unmarked) [Compound 605] here?
**A.** 36.5%

**Q.** For `CC1(c2cccc(NC(=O)c3ccc(C(F)(F)F)cn3)c2)CCSC(N)=N1` (centres unmarked) [Compound 1244], which response vs control in vivo at 100 mg/kg is on record?
**A.** 50.1%

Tested on: brain β amyloid 1-40
Assay: Lowering effect on brain β amyloid in rats
Format: in vivo
Settings: male Crg:SD rat, 10 mg/kg orally, brain isolated 3 hours after administration
Procedure: as §1

**Q.** Which “brain β amyloid 1-40, % of vehicle control group” value does the source give for `Cc1cnc(C(=O)Nc2ccc(F)c([C@]3(C)CCSC(N)=N3)c2)cn1` [Compound 622] here?
**A.** 50.1 % of vehicle control group

**Q.** For `COc1cnc(C(=O)Nc2ccc(F)c([C@]3(C)CCSC(N)=N3)c2)cn1` [Compound 634], which “brain β amyloid 1-40, % of vehicle control group” value is on record?
**A.** 21.1 % of vehicle control group

Same assay, conditions: po; male Crg:SD rat, 10 mg/kg orally, brain isolated 3 hours after administration, ELISA; read-out: reduction of brain β amyloid 1-40 compared to vehicle control group

**Q.** Which inhibition in vivo at 10 mg/kg does the source give for `Cc1cnc(C(=O)Nc2ccc(F)c(C3(C)CCSC(N)=N3)c2)cn1` (centres unmarked) [Compound 359] here?
**A.** 60 to 90%

**Q.** With `CC1(c2cccc(NC(=O)c3ccc(Cl)cn3)c2)CCSC(N)=N1` (centres unmarked) [Compound 793] as the compound, how does the inhibition in vivo at 10 mg/kg read?
**A.** 60 to 90%

**Q.** For `Cc1cc(C(=O)Nc2ccc(F)c(C3(C)CCSC(N)=N3)c2)c(C)o1` (centres unmarked) [Compound 1282], which inhibition in vivo at 10 mg/kg is on record?
**A.** 60 to 90%

**Q.** Which inhibition in vivo at 10 mg/kg does the source give for `COc1cnc(C(=O)Nc2cccc(C3(C)CCSC(N)=N3)c2)cn1` (centres unmarked) [Compound 243] here?
**A.** 60 to 90%

**Q.** For `C[C@@]1(c2cccc(NC(=O)c3cnc(O)cn3)c2)CCSC(N)=N1` [Compound 733], which inhibition in vivo at 10 mg/kg is on record?
**A.** 60 to 90%

**Q.** Which inhibition in vivo at 10 mg/kg does the source give for `CC1(c2cc(NC(=O)c3ncc(Cl)cn3)ccc2F)CCSC(N)=N1` (centres unmarked) [Compound 204] here?
**A.** 60 to 90%

**Q.** Which inhibition in vivo at 10 mg/kg does the source give for `CC1(c2cccc(NC(=O)c3ccc(F)cn3)c2)CCSC(N)=N1` (centres unmarked) [Compound 212] here?
**A.** 60 to 90%

**Q.** For `C[C@@]1(c2cccc(NC(=O)c3ncc(Cl)cc3Cl)c2)CCSC(N)=N1` [Compound 39], which inhibition in vivo at 10 mg/kg is on record?
**A.** 60 to 90%

**Q.** For `CC1(c2cccc(NC(=O)c3ncc(C(F)(F)F)cc3Cl)c2)CCSC(N)=N1` (centres unmarked) [Compound 482], which inhibition in vivo at 10 mg/kg is on record?
**A.** 60 to 90%

Tested on: not given
Assay: not given
Settings: not given

**Q.** For `CC1(c2ccccc2)CCN=C(N)S1.Cl` (centres unmarked) [Compound 783], which melting point is on record?
**A.** 205 to 206 °C

**Q.** For `CC1(c2ccc(OC3C=CC=CC3)cc2)CCSC(N)=N1` (centres unmarked) [Compound 1055], which melting point is on record?
**A.** 169 to 170 °C

**Q.** Which melting point does the source give for `C[C@]1(c2ccccc2)C[C@H](c2ccccc2)SC(N)=N1` (racemic) [Compound 835] here?
**A.** 139 to 140 °C

**Q.** For `CC1(C2=CC=C(F)CC2)CCCSC(N)=N1.Cl` (centres unmarked), which melting point is on record?
**A.** 219 to 222 °C

**Q.** Which melting point does the source give for `CC1(c2cccc(NC(=O)c3ncc(Cl)cn3)c2)CCSC(N)=N1` (centres unmarked) [Compound 515] here?
**A.** 204 to 208 °C

**Q.** With `C[C@]1(c2ccccc2)C[C@@H](c2ccccc2)SC(N)=N1.Cl` as the compound, how does the melting point read?
**A.** 161 to 165 °C

**Q.** With `CC1(c2ccc(F)c(C(=O)NC3=CC(Cl)CC=N3)c2)CCSC(N)=N1` (centres unmarked) [Compound 1068] as the compound, how does the melting point read?
**A.** 132 to 134 °C

**Q.** With `CCS/C(N)=N\C(C)C1C=C(NC(=O)c2cnc3ccccc3n2)C=CC1` (centres unmarked) [Compound 1115] as the compound, how does the melting point read?
**A.** 167 to 170 °C

**Q.** With `COc1ccc([C@]2(C)N=C(N)SC[C@H]2C)cc1` [Compound 8] as the compound, how does the melting point read?
**A.** 214 to 217 °C

**Q.** For `CC1(c2cc(NC(=O)c3ccc(Cl)cn3)cc(C(F)(F)F)c2)C=C(N)SCC1` (centres unmarked) [Compound 964], which melting point is on record?
**A.** 185 to 187 °C

**Q.** With `Cc1ccc(OC2=CCC(C3(C)CCSC(N)=N3)C=C2)cc1` (centres unmarked) [Compound 1067] as the compound, how does the melting point read?
**A.** 162 to 165 °C

**Q.** Which melting point does the source give for `CC1(c2ccc(F)c(N3N=C4c5cc(Cl)ccc5NCC4C3=O)c2)CCSC(N)=N1` (centres unmarked) [Compound 1166] here?
**A.** 290 to 295 °C

**Q.** Which melting point does the source give for `COc1ccc([C@@]2(C)C[C@H](C)SC(N)=N2)cc1` [Compound 86] here?
**A.** 141 to 142 °C

**Q.** With `CC1(c2cccc(NC(=O)C3CN=CC=N3)c2)CCSC(N)=N1` (centres unmarked) [Compound 164] as the compound, how does the melting point read?
**A.** 91 to 96 °C

**Q.** For `CC1(C2C=C(/C=N/OCc3cccnc3)C=CC2)CCSC(N)=N1` (centres unmarked) [Compound 584], which melting point is on record?
**A.** 152 to 153 °C

**Q.** With `C[C@@]1(C2C=C(NC(=O)c3ncc(Cl)cc3N)C=CC2)CCSC(N)=N1` (some centres unmarked) [Compound 743] as the compound, how does the melting point read?
**A.** 148 to 150 °C

**Q.** Which melting point does the source give for `C[C@@]1(c2cc(NC(=O)c3n[nH]c4ccccc34)ccc2F)CCSC(N)=N1` [Compound 241] here?
**A.** 187 to 190 °C

**Q.** For `CC1(c2cccc(CO)c2)CCSC(N)=N1` (centres unmarked) [Compound 501], which melting point is on record?
**A.** 155 to 158 °C

**Q.** With `COC(=O)c1cc(C(=O)Nc2cccc(C3(C)CCSC(N)=N3)c2)nn1C` (centres unmarked) [Compound 687] as the compound, how does the melting point read?
**A.** 164 to 187 °C

**Q.** With `CC1(C2=CC=CCC2)CCCSC(N)=N1.Cl` (centres unmarked) as the compound, how does the melting point read?
**A.** 223 to 225 °C

Tested on: brain β amyloid 1-40
Assay: Lowering effect on brain β amyloid in mice
Format: in vivo
Settings: sc; male Crlj:CD-1(ICR) mouse, 3 hours after 30 mg/kg of subcutaneous administration; read-out: brain β amyloid 1-40, % of vehicle control group

**Q.** Which response vs control in vivo at 30 mg/kg does the source give for `CC1(c2cccc(NC(=O)c3ccc(C#N)cn3)c2)CCSC(N)=N1` (centres unmarked) [Compound 651] here?
**A.** 52.3%
